In patent publication US6777237B2, “Bioconjugates and delivery of bioactive agents” (University of Utah Research Foundation, priority 1996, dated 2004):

Columns and labels:
[1] = Thermal stability of bioconjugates in media (UV-vis, then photolysis check); assay type: physicochemical
HL-60 cell line = experiment: MTT cell viability assay, HL-60 cell line; assay type: cell-based, human; conditions: for IC50: HL-60
B-16 cell line = experiment: MTT cell viability assay, B-16 cell line; assay type: cell-based, mouse
RD-995 cell line = experiment: MTT cell viability assay, RD-995 cell line; assay type: cell-based, mouse
HCT-116 cell line = experiment: MTT cell viability assay, HCT-116 cell line; assay type: cell-based, human; conditions: for IC50: HCT-116
Meth-A cell line = experiment: MTT cell viability assay, Meth-A cell line; assay type: cell-based, mouse
[2] = Anaerobic continuous-wave photolysis of methylcob(III)alamin; assay type: physicochemical; conditions: 514 nm light from an Argon-ion laser
Experimental: A protocol for a typical anaerobic continuous-wave photolysis of methylcob(III)alamin or CH3Cbl^III is as follows. An aqueous solution of 200 μM CH3Cbl^III and 50 mM K^+ Hepes pH 7.3 is placed in a 1 cm quartz cuvette. Samples that are to be photolyzed under anaerobic conditions are either subjected to repeated freeze-pump-thaw cycles, or purged with Ar for 40 minutes immediately prior to photolysis and sealed. Continuous-wave visible light irradiation is accomplished at the desired wavelength with an Ar^+ pumped dye laser. The incident light on the face of the cuvette is reduced to 12 mW cm^−2 with neutral density filters. The light flux is determined by potassium ferrioxalate actinomety and by a Scientech surface-reading thermopile. The cuvette is placed in a thermostated cell holder at 25-37° C. […] The magnetic field within the area of the cuvette is homogeneous to within 2% and the long term stability is better than 0.5% as monitored by a transverse Hall probe and digital teslameter.
Absorption spectra from 300-600 nm are recorded in one second with a diode array spectrophotometer at variable time intervals from 10 seconds to 2 minutes (depending upon the fluence of the photolyzing light source) for a total of 3 τ1/2. […] The concentration of CH3Cbl^III is determined using the measured absorbance at 350 or 520 nm by the method of Chen and Chance (1993). […]

[3] = Photolysis (10 min irradiation, 1 h after treatment)
[4] = Homo sapiens, unconjugated chlorambucil
[5] = Mus musculus, unconjugated chlorambucil

Row | Molecule | thermal lability [1] | IC50 (HL-60 cell line; No Photolysis) | IC50 (B-16 cell line; [3]) | IC50 (RD-995 cell line; [3]) | IC50 (HCT-116 cell line; [3]) | IC50 (Meth-A cell line; No Photolysis) | IC50 (Meth-A cell line; [3]) | also measured
1 | 2-[4-(4′-[bis-(2-chloroethyl)amino]phenyl)butyroxy]ethylcob(III)alamin [compound 3] | thermal lability | 3200 nM | 600 nM | 200 nM | 1700 nM | 210000 nM | 200 nM | LD50 (HL-60 cell line; HL-60, FIG. 6, bioconjugate, no photolysis): 0.2 µM; fold better than unconjugated chlorambucil standard (LD50) (HL-60 cell line; HL-60, FIG. 6, no photolysis): at least 2 fold; toxicity (HL-60 cell line; HL-60, FIG. 6, with addition of 10 equivalents of vitamin B12, no photolysis): absence of toxicity; LD50 (HCT-116 cell line; HCT-116, FIG. 5, brief irradiation with red light 12 hours after dosing): 0.08 µM; toxicity (HCT-116 cell line; HCT-116, FIG. 5, no photolysis, at concentrations approaching 100 μM): no substantial toxicity; LD50 (HCT-116 cell line; HCT-116, FIG. 5, photolysis with 10-fold excess of vitamin B12 added): 2 µM
2 | 4-[4′-(bis-[2-chloroethyl]amino)phenyl]butyroylcob(III)alamin [compound 4] | thermal lability | 8900 nM | 300 nM | 300 nM | 1100 nM | 84200 nM | 300 nM | –
3 | C/C1=C2/[N-][C@H]([C@H](CC(N)=O)[C@@]2(C)CCC(=O)NC[C@@H](C)OP(=O)([O-])O[C@H]2[C@@H](O)[C@@H](n3cnc4cc(C)c(C)cc43)O[C@@H]2CO)[C@]2(C)N=C(/C(C)=C3N=C(/C=C4N=C1[C@@H](CCC(N)=O)C\4(C)C)[C@@H](CCC(N)=O)[C@]\3(C)CC(N)=O)[C@@H](CCC(N)=O)[C@]2(C)CC(N)=O.[CH3-].[Co] [CH3Cbl^III, methylcob(III)alamin] | – | – | – | – | – | – | – | photolysis quantum yield [2]: about 0.3
4 | O=C(O)CCCc1ccc(N(CCCl)CCCl)cc1 [Chlorambucil, reference compound] | – | – | – | – | – | – | – | LD50 (HL-60 cell line; HL-60, FIG. 6, unconjugated chlorambucil standard): 0.5 µM; IC50 (HL-60 cell line; [4]): 5800 nM; IC50 (B-16 cell line; Mus musculus, B16, unconjugated chlorambucil): 1400 nM; IC50 (RD-995 cell line; [5]): 1100 nM; LD50 (HCT-116 cell line; HCT-116, FIG. 5, chlorambucil alone): about 2 μM; IC50 (HCT-116 cell line; [4]): 20800 nM; IC50 (Meth-A cell line; [5]): 1800 nM
